The values that follow come from the OPERA property sets (Mansouri et al. 2018).

As a reminder, the logP is a log measure of how a compound divides between an organic and an aqueous phase. Read a high logP as a more lipophilic compound. As a reminder, the solubility is the concentration that dissolves in the medium under given conditions. High values mean much dissolved substance, low ones little dissolved substance.

≈ marks a conversion by molar mass, not a printed value.

Conditions in the first series: not given
The compound `N#Cc1cc(-c2ccncc2)cnc1Cl` had a logP of 1.74. On the same count and under the same terms, then `ClC=C1C2CC(C(Cl)C2(Cl)Cl)C1(C(Cl)Cl)C(Cl)Cl` (configuration not stated), with 5.49. On to `OCc1c(F)cccc1F`, for which the log partition coefficient (logP) is 1.12. The compound `C[Si]1(C)O[Si](C)(C)O[Si](C)(C)O[Si](C)(C)O[Si](C)(C)O1` registered a lipophilicity (logP) of 8.03. On the same count and under the same terms, the figure for `Clc1ccc2ccc(Cl)cc2c1` is 4.81. Take `O=c1[nH]c(=O)n([C@H]2C[C@H](O)[C@@H](CO)O2)cc1I`: the logP is -0.96. Still for that read-out and setting: the figure for `CC(=O)Nc1nc(=O)c2ncn(COCCOC(C)=O)c2[nH]1` is -0.85; for `COc1ccc2oc(N(N)CCC#N)nc2c1` it is 0.98. As for `CCCCCCCCC1(CC)C(=O)NC(=O)NC1=O`, the log partition coefficient (logP) worked out at 3.78. In the case of `O=[N+]([O-])c1c(Cl)cc(Cl)cc1Cl`, the log partition coefficient (logP) was determined as 3.69.

Take `COc1ccc(Nc2ccnc3cc(Cl)ccc23)cc1`: the logP stood at 4.94. The same measure, in the same setting: then `Cc1nc(NCc2ccccc2)nc(C(Cl)(Cl)Cl)n1`, with 3.86.

Compound `O=[N+]([O-])c1cc(Cl)c(Cl)c(Cl)c1Cl` returned a logP of 3.93. Still for that read-out and setting: then `CC(C)COC(=O)c1cc(=O)[nH]c(=O)[nH]1`, with 1.01; and `CCN(CC)CCCN=c1cc2n(-c3ccc(Cl)cc3)c3ccccc3nc-2cc1Nc1ccc(Cl)cc1`, with 8.05; and `CCn1ccc(=O)c(O)c1`, with -0.4. Regarding `BrCC1CO1` (configuration not stated), the logP came to 0.85. Still for that read-out and setting: the figure for `NC(=O)c1ccccc1NCCO` is -0.05; for `CCn1ccc(=O)c(O)c1C` it is -0.31. `O=[N+]([O-])c1ccc(O)cc1C(F)(F)F` registered a solubility of 24.1 mM (≈ 5000 µg/mL). The compound `NS(=O)(=O)c1nn2c(=Nc3cccc(Cl)c3)snc2s1` had a logP of 3.5. `OCCC(F)(F)C(F)(F)C(F)(F)C(F)(F)F` showed a log partition coefficient (logP) of 3.3. Take `CCn1cc(C(=O)O)c(=O)c2cc(F)c(N3CCNC(C)C3)cc21` (configuration not stated): the logP worked out at 0.34. `Oc1ccc(Cl)cc1Cc1ccccc1` had a logP of 3.6 and a solubility of 0.681 mM (≈ 149 µg/mL). In the case of `CN(C)c1cnn(-c2ccccc2)c(=O)c1Cl`, the logP was found to be 1.55. `Cc1ccc(S(=O)(=O)CC(=O)c2ccc(Cl)cc2)cc1` displayed a logP of 3.43.

`CCCCCCCCCC1(CC)C(=O)NC(=O)NC1=O`: the lipophilicity (logP) turned out to be 4. On the same count and under the same terms, then `Cc1cc(OCCNCC2CC(=O)c3ccccc3C2=O)c(C(C)C)cc1O` (configuration not stated), with 4.25.

Regarding `CCOC(=O)n1c(-c2cscn2)nc2ccccc21`, the log partition coefficient (logP) is 2.51. `CCCCC(NC(Cc1ccccc1)C(=O)N1CCC(OCOC)CC1)C(=O)NC(CC1CCCCC1)C(O)CC(C(=O)NCCNc1n[nH]c(N)n1)C(C)C` (configuration not stated): the lipophilicity (logP) was found to be 4.2. With `COC(=O)[C@@H](N)Cc1ccc(O)cc1`, the lipophilicity (logP) stood at 0.29.

Staying with this series, now noted: 20 °C.
The compound `CCCCOCC1CO1` (configuration not stated) registered a solubility of 154 mM (≈ 20000 µg/mL). As for `C=C(C)[C@H]1Cc2c(ccc3c2O[C@@H]2COc4cc(OC)c(OC)cc4[C@@H]2C3=O)O1`, the solubility was 0.000507 mM (≈ 0.2 µg/mL). For `C=CCN(CC=C)c1c(C)cc(OC(=O)NC)cc1C`, the solubility stood at 0.255 mM (≈ 70 µg/mL). `CCCC(CCC)C(=O)O` showed a solubility of 13.9 mM (≈ 2000 µg/mL). The same measure, in the same setting: the figure for `NC(=O)c1ccccc1C(N)=O` is 3.66 mM (≈ 600 µg/mL).

Staying with this series, now noted: 22.0 °C.
As to `Cc1ccc(C(C)C)cc1`, the log10 OH rate constant (cm³/molecule/s) was -10.8.

The series is the same for the next values; noted with them: 23 °C.
`C[Si]1(C)O[Si](C)(C)O[Si](C)(C)O[Si](C)(C)O[Si](C)(C)O1` yielded a solubility of 4.58e-05 mM (≈ 0.017 µg/mL). `CN(N=O)C(N)=O` displayed a solubility of 140 mM (≈ 14400 µg/mL).

Staying with this series, now noted: 23.0 °C.
In the case of `CCCCCC=O`, the log10 OH rate constant (cm³/molecule/s) was -10.5.

The series is the same for the next values; noted with them: 24.0 °C.
Regarding `c1ccc2cnccc2c1`, the log10 OH rate constant (cm³/molecule/s) was -11.1.

The series is the same for the next values; noted with them: 25 °C.
For `CCCCCCO[N+](=O)[O-]`, the solubility stood at 0.747 mM (≈ 110 µg/mL).

Compound `Cc1ccc(C(C)C)cc1` returned a solubility of 0.174 mM (≈ 23.4 µg/mL). The compound `O=C1CCO1` displayed a solubility of 5130 mM (≈ 370000 µg/mL). `CSc1ccccc1` had a solubility of 4.07 mM (≈ 506 µg/mL).

With `c1ccc(OCC2CO2)cc1` (configuration not stated), the solubility stood at 16 mM (≈ 2400 µg/mL). In turn, `OCC(Br)CBr` (configuration not stated) showed a solubility of 239 mM (≈ 52000 µg/mL). The same measure, in the same setting: then `CCOC(=O)COc1cc(Cl)c(Cl)cc1Cl`, with 0.0141 mM (≈ 4.01 µg/mL).

The same series, now with this note: 25.0 °C.
For `C[Si]1(C)O[Si](C)(C)O[Si](C)(C)O[Si](C)(C)O[Si](C)(C)O1`, the log10 OH rate constant (cm³/molecule/s) is -11.8. On the same count and under the same terms, the figure for `CCCCl` is -12; for `CC(Cl)C(C)Cl` (configuration not stated) it is -12.
